The results in this text go back to patent US20250041577A1, “SHORT-PULSE SONODYNAMIC TREATMENT APPARATUS” (Insightec, Ltd., priority 2021, published 2025).

Data set [1] can be described thus: Plasma and blood pharmacokinetics of 5-ALA and PPIX after IV SONALA-001 (LC-MS/MS). It is filed as in vivo. The settings on record: human, plasma; 10 mg/kg IV Sonala-001; recurrent GBM patients; read-out: median Cmax for 5-ALA in plasma. Here is the method: Six hours prior to MRgFUS, adult patients with recurrent GBM are administered SONALA-001 (10 mg/kg), an investigational IV formulation of […]. Oral […] is an FDA- and […] agent used in fluorescence-guided surgery to visualize glioma infiltration and maximize extent of resection. LCMS/MS methods were developed to determine the levels of […] and PPIX in plasma and blood following IV administration of SONALA-001. Samples were analyzed using SCIEX ExionLC UHPLC system and the detection was performed on SCIEX QTRAP 6500+ mass spectrometer by multiple reaction monitoring mode to monitor the precursor-to-product ion transitions in positive electrospray ionization mode.

Data set [2] is described as follows: Drug and device safety of 5-ALA SDT in recurrent GBM patients (Phase 0/1). Conditions: three adult recurrent GBM patients. It is filed as in vivo, human. How it is done:
Six hours prior to MRgFUS, adult patients with recurrent GBM are administered SONALA-001 (10 mg/kg), an investigational IV formulation of […]. Oral […] is an FDA- and […] agent used in fluorescence-guided surgery to visualize glioma infiltration and maximize extent of resection. The […] Model 4000 Type-2 system is an investigational MRgFUS with a 1000-element transducer utilizing real-time MR imaging during treatment delivery. It includes the same monitoring capabilities as the ablative, FDA-approved Type-1 system for essential tremor and tremor-dominant Parkinson's Disease. However, the Type-2 device can target a large range of brain anatomy and operates at relatively low ultrasound frequencies and intensities, preventing tissue heating when inducing sonoluminescence. Intra-procedural MR thermometry automatically triggers an auto-stop if any tissue approaches ablative temperatures. […] Patients must have completed standard-of-care chemotherapy and radiotherapy prior to radiographic recurrence. In a Dose-Escalation Arm, 9-18 patients are assigned to one of three ascending acoustic energy doses of […], measured at transducer surface), followed by a four-day interval until tumor resection. In each patient, half the tumor volume, including Gadolinium-enhancing and non-enhancing tumor, is targeted with MRgFUS and the other half serves as an internal control. […]

For data set [3] the following is noted: human, in vivo. An excerpt:
Performed similarly to Example 1 with same study drug but for Diffuse Intrinsic Pontine Glioma (DIPG) and with typically only radiation therapy performed prior.
Performed similarly to Example 1 but with an increase in the number of subspots per sonication (32 subspots). Targets were overlapped with a 2.0-3.0 mm spot to spot separation and Duty Cycle within 4-32% throughout the study. Pulse duration ranged from 0.0002 to 0.002 second.
Similar to Example 1, this multi-center, non-randomized, open label, first-in-pediatric Phase 1/2 study is a drug dose (5, 10, or 15 mg/kg SONALA-001) and focused ultrasound energy (200J, 400J, or 800J) escalation study containing 18-24 subjects, 9 cohorts of approximately 3 patients each. These pediatric patients with DIPG must have completed standard-of-care radiotherapy prior to radiographic treatment. No resection due to location but biopsy can be obtained. In the first patient, half of the Pons volume is targeted with MRgFUS and the other half serves as an internal control for safety. If no DLTs or any grade intracranial hemorrhage and any clinical symptoms (CTCAE, Version 5.0, i.e., intracranial hemorrhage Grades 2-5) are observed, the next patients will receive treatment over the entire pons. The intervention model will be sequential assignment using a Bayesian optimal interval (BOIN) dose escalation method. […]

SMILES strings stand for the structures. Like-named read-outs stand apart in the source and are kept apart here.

A word on the Cmax: it is the peak of the concentration-time curve. Regarding `NCC(=O)CCC(=O)O` [5-ALA, 5-aminolevulinic acid], the Cmax in data set [1] stood at 307 µM. The 5-ALA-related photosensitivity result in data set [2] and in data set [3] was “No patient demonstrated 5-ALA-related photosensitivity” each time.
